Data on one compound can be found in patent publication US20110105748A1, “Novel beta-phenyl-alpha-oxysubstituted propionic derivatives: process for its preparation and their use in the preparation of pharmaceutically important compounds” (priority 2001, published 2011).

In the case of `CCOC(=O)[C@H](Cc1ccc(N)cc1)OCC` [Example 6, (S)-Ethyl 2-ethoxy-3-(4-aminophenyl)propionate], the melting point (usually the temperature, or range, at which the solid turns liquid) was 74 to 76 °C.
